Measured values from PubChem BioAssay (NCI).
Where “and” joins values, the source holds several entries; their conditions need not be identical. Equal values may be shown once.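 Cultured in 96-well plates, cells were exposed to test compound for 48 hours across five concentrations. GI50 is the concentration that inhibits growth by half. TGI is the concentration that stops growth completely.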

Experiments:
Assay in all cases: inhibition of tumour cell growth, NCI panel, 48 h
SK-OV-3 ovarian = test system: SK-OV-3 ovarian
SF-539 CNS = test system: SF-539 CNS
HCC-2998 colon = test system: HCC-2998 colon
KM12 colon = test system: KM12 colon
OVCAR-5 ovarian = test system: OVCAR-5 ovarian
HOP-62 NSCLC = test system: HOP-62 NSCLC
CAKI-1 renal = test system: CAKI-1 renal
HS 578T breast = test system: HS 578T breast
MDA-MB-435 = test system: MDA-MB-435
SW-620 colon = test system: SW-620 colon

| SMILES | GI50 (SK-OV-3 ovarian) | TGI (SK-OV-3 ovarian) | GI50 (SF-539 CNS) | TGI (SF-539 CNS) | GI50 (HCC-2998 colon) | TGI (HCC-2998 colon) | GI50 (KM12 colon) | TGI (KM12 colon) | GI50 (OVCAR-5 ovarian) | TGI (OVCAR-5 ovarian) | GI50 (HOP-62 NSCLC) [µM] | TGI (HOP-62 NSCLC) | GI50 (CAKI-1 renal) | TGI (CAKI-1 renal) | GI50 (HS 578T breast) [µM] | TGI (HS 578T breast) | GI50 (MDA-MB-435) [µM] | TGI (MDA-MB-435) | GI50 (SW-620 colon) | TGI (SW-620 colon) |
| --- | --- | --- | --- | --- | --- | --- | --- | --- | --- | --- | --- | --- | --- | --- | --- | --- | --- | --- | --- | --- |
| Nc1nccc(-c2c(-c3ccc(F)cc3)nn3cc(C(F)(F)F)ccc23)n1 | > 25 µM | > 25 µM | > 25 µM | > 25 µM | > 25 µM | > 25 µM | > 25 µM | > 25 µM | > 25 µM | > 25 µM | > 21.9 | > 25 µM | > 25 µM | > 25 µM | > 25 | > 25 µM | > 25 | > 25 µM | > 25 µM | > 25 µM |
| CCCCCCCCCCCC[C@@H](O)[C@H]1CC[C@H]([C@H](O)CC[C@H](O)[C@@H]2CC[C@@H](CCCCCCCC3=C[C@H](C)OC3=O)O2)O1 | – | > 50 µM | – | > 50 µM | – | > 50 µM | 4.26 µM | > 50 µM | – | > 50 µM | – | > 50 µM | – | > 50 µM | > 50 | > 50 µM | 1.49 | > 50 µM | 3.23 µM | > 50 µM |
| C=C(CN1CCc2[nH]c3ccc(F)cc3c2C1)c1ccc(C(=O)Nc2ccccc2N)cc1 | 2.92 µM | 11.8 µM | 0.38 µM | 2.32 µM | 1.38 µM | 3.82 µM | 0.524 µM | 2.94 µM | 4.32 µM | 20.6 µM | 0.605 | 8.38 µM | 1.93 µM | 5.91 µM | 1.07 | 14.1 µM | 1.6 | 4.07 µM | 0.715 µM | 15.6 µM |
| CCC(c1ccccc1)c1noc(CCN(CC)CC)n1 (configuration not stated) | > 100 µM | > 100 µM | 23.2 µM | 71.1 µM | 50.1 µM | > 100 µM | 22.8 µM | > 56.1 µM | 17.1 µM | 35.6 µM | 42.5 | > 100 µM | 2.18 µM | 6.39 µM | > 40.7 | > 72.8 µM | 23.8 | > 78.8 µM | 21 µM | > 68.1 µM |
| CC(=O)O[C@H]1CC2C(C3CC[C@H](C(C)CCC(=O)O)[C@]31C)[C@H](OC(C)=O)C[C@@H]1CC3(CC[C@]21C)OOC1(CCC(C)CC1)OO3 (some centres not stated) | 10.6 µM and 3.14 µM | 22.4 µM and 10.7 µM | 8.15 µM and 1.94 µM | 20.6 µM and 3.86 µM | 8.43 µM and 2.73 µM | 21.3 µM and 6.48 µM | 5.73 µM and 2.31 µM | 19.4 µM and 6.98 µM | 10.6 µM and 4.54 µM | 22.7 µM and 16 µM | – | 7.39 µM and 3.49 µM | 6.75 µM and 2.23 µM | 19.1 µM and 6.49 µM | – | 13.8 µM and 4.77 µM | – | 18.7 µM and 7.76 µM | 7.42 µM and 3.55 µM | 22.2 µM and 16 µM |
| NC(N)=NCCCC(NCc1c2ccccc2nc2ccccc12)C(=O)O (configuration not stated) | – | > 100 µM | – | > 100 µM | – | > 100 µM | – | > 100 µM | – | > 100 µM | – | > 100 µM | – | > 100 µM | – | > 100 µM | – | > 100 µM | – | > 100 µM |
| COc1ccc(/C=C2\CCC/C(=C\c3ccc(OC)c(OC)c3)C2=O)cc1OC | 12.1 µM | > 32.5 µM | 8.55 µM | > 32.5 µM | > 32.5 µM | > 32.5 µM | 1.02 µM | > 32.5 µM | 25 µM | > 32.5 µM | 4.59 | > 32.5 µM | 1.13 µM | 8.16 µM | 7.95 | > 32.5 µM | 1.1 | > 32.5 µM | 1.49 µM | 24.1 µM |
| S=C1SCN(Cc2ccccc2)CN1Cc1ccco1 | 12.9 µM | 52.7 µM | 2.24 µM | 6.68 µM | 16.6 µM | 34.1 µM | 1.52 µM | 10.6 µM | 9.73 µM | 21.9 µM | 5.33 | 26.8 µM | 4.81 µM | 17.4 µM | 19.7 | 81.5 µM | 1.67 | 10.4 µM | 4.52 µM | 18.1 µM |
| CCCCCC(=O)O[C@]1(C(C)=O)CCC2C3CCC4=CC(=O)CC[C@]4(C)C3CC[C@@]21C (some centres not stated) | 3.25 µM | 13.3 µM | 2.94 µM | 8.31 µM | 2.55 µM | 7.56 µM | 2.24 µM | 5.24 µM | 5.04 µM | 22.3 µM | 3.33 | 10.9 µM | 1.75 µM | 8.22 µM | 0.421 | > 50.5 µM | 3.25 | 13.1 µM | 2.86 µM | 15.1 µM |
| COc1ccc(C(O)c2cc3c(N)c(C(=O)Nc4cccc5ccccc45)sc3nc2C)cc1 (configuration not stated) | 0.643 µM | > 100 µM | 0.025 µM | 0.0698 µM | 0.475 µM | > 54 µM | 0.328 µM | – | 0.493 µM | > 100 µM | 1.27 | > 100 µM | 0.352 µM | > 100 µM | 0.319 | > 100 µM | 0.127 | 0.415 µM | 0.284 µM | > 100 µM |
| COC12C(COC(=O)NCCO)C3=C(C(=O)C(C)=C(N)C3=O)N1CC1NC12 (configuration not stated) | 100 µM | > 264 µM | 13.9 µM | 98.7 µM | – | 99.3 µM | 61.7 µM | 177 µM | 78.1 µM | > 264 µM | 28.4 | 74.7 µM and 139 µM | 4.99 µM | 28.2 µM and 21.7 µM | – | > 264 µM | – | > 264 µM | 26.7 µM | 110 µM |
| COCCOC1=C(Cl)C(=O)c2ccccc2C1=O | 4.55 µM | 16.8 µM | 2.52 µM | 5.79 µM | 4.23 µM | 15 µM | 2.11 µM | 4.23 µM | 3.22 µM | 9.52 µM | 3.92 | 14.8 µM | 2.83 µM | 9.83 µM | 2.94 | 12.7 µM | 3.08 | 10.4 µM | 1.7 µM | 3.32 µM |
| Cc1cnc(C(=O)NNc2nc3sc4c(c3c(=O)[nH]2)C(C)CCC4)cn1 (configuration not stated) | 0.524 µM | 11.1 µM | 0.918 µM | 10.2 µM | 1.63 µM | 20.8 µM | 0.93 µM | 95.6 µM | 2.1 µM | 15.8 µM | 0.273 | 17.5 µM | 1.5 µM | 18.5 µM | 4 | 84.4 µM | 3.25 | 26.6 µM | 2.62 µM | 79.2 µM |
